In patent US20240317723A1, “SUBSTITUTED AMINO AZA-HETEROARYL COMPOUNDS AS INHIBITORS OF THE HAEMATOPOIETIC PROGENITOR KINASE 1 (HPK1)” (priority 2021, published 2024):

Experiments:
[1] = target: Lck (h) (Homo sapiens, UniProt P06239); assay: Lck Human STE Kinase Enzymatic Radiometric Assay; format: biochemical; details: radiometric, [gamma-33P]-ATP, Cdc2 peptide substrate; read-out: Lck IC50, nM Range*
Protocol: (b) Lck Human STE Kinase Enzymatic Radiometric Assay
Lck (h) is incubated with 50 mM Tris pH 7.5, 0.1 mM EGTA, 0.1 mM Na3VO4, 250 uM KVEKIGEGTYGVVYK (Cdc2 peptide), 10 mM MgAcetate and [gamma-33P]-ATP (specific activity and concentration as required). The reaction is initiated by the addition of the Mg/ATP mix. After incubation for 40 minutes at room temperature, the reaction is stopped by the addition of phosphoric acid to a concentration of 0.5%. 10 uL of the reaction is then spotted onto a P30 filtermat and washed four times for 4 minutes in 0.425% phosphoric acid and once in methanol prior to drying and scintillation counting. For more details on the kinase assay procedures see: Gao, Y. et. al.; Biochem J., 451 (2): 313-328, 2013.
In some embodiments the presence of substituents on monocyclic Cy^2 rings or when Cy^2 is a bicyclic ring (unsubstituted or substituted) provides compounds with improved selectivity for inhibition of HPK1 vs Lck (see, for example, Table 3 and Table 4).

[2] = target: T1, Recombinant (1-346) HPK1 (h) (Homo sapiens, UniProt Q92918); assay: HPK1 Human STE Kinase Enzymatic Radiometric Assay; format: biochemical; details: [gamma-33P]-ATP, myelin basic protein substrate, read-out: HPK1 IC50 nM Range*
T1 construct: Recombinant (1-346) HPK1 (h) is incubated with 8 mM MOPS pH 7.0
T1 sequence (Q92918 1-346): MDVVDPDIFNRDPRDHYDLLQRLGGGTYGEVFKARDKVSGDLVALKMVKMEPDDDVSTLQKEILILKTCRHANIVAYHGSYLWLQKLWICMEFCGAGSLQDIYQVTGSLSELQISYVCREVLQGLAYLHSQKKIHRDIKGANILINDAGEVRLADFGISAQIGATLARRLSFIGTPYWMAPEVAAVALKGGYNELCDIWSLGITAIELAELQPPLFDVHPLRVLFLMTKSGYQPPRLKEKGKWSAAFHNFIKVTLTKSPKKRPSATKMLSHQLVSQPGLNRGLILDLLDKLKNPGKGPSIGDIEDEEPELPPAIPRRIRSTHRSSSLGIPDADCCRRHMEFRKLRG
Protocol: (a) HPK1 Human STE Kinase Enzymatic Radiometric Assay
A stock solution of 10 mM of test compound is prepared in DMSO. The compound plate was prepared by 3-fold and 9-point serial dilutions. Recombinant (1-346) HPK1 (h) is incubated with 8 mM MOPS pH 7.0, 0.2 mM EDTA, 0.33 mg/mL myelin basic protein, 10 mM MgAcetate and [gamma-33P]-ATP (specific activity and concentration as required). The reaction is initiated by the addition of the Mg/ATP mix. After incubation for 40 minutes at RT, the reaction is stopped by the addition of phosphoric acid to a concentration of 0.5%. 10 uL of the reaction is then spotted onto a P30 filtermat and washed four times for 4 minutes in 0.425% phosphoric acid and once in methanol prior to drying and scintillation counting. For more details of kinase assay protocols, see: Gao, Y. et. al.; Biochem J. 451 (2): 313-328, 2013.

Chain of Lck (h) (P06239 whole entry): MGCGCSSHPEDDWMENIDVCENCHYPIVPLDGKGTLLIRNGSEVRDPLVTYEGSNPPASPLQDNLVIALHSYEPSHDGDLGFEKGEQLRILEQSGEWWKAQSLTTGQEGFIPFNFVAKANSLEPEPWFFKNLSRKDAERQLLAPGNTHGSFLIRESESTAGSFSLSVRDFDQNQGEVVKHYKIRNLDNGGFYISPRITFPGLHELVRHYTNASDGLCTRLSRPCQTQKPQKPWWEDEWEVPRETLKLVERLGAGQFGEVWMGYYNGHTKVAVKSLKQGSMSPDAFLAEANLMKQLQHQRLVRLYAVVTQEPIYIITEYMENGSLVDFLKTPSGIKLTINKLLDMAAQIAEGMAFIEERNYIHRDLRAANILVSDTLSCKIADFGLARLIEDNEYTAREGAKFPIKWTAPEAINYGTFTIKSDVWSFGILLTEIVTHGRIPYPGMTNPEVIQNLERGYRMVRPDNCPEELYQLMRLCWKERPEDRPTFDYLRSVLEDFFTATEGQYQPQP

| IC50 [1] [nM] | IC50 [2] [nM] | SMILES |
| --- | --- | --- |
| 6 to 10 | 0.1 to 5 | CC(C)[C@@H]1CN(c2ccc(-c3cnc(N)c(-c4ccc5c(c4)CCNC5=O)n3)cc2)CCN1C [Example I-38, (R)-6-(3-amino-6-(4-(3-isopropyl-4-methylpiperazin-1-yl)phenyl)pyrazin-2-yl)-3,4-dihydroisoquinolin-1(2H)-one] |
| 11 to 20 | 0.1 to 5 | CC(C)[C@@H]1CN(c2ccc(-c3cnc(N)c(-c4ccc5c(c4)CCNC5=O)n3)c(F)c2)CCN1C [Example I-39, (R)-6-(3-amino-6-(2-fluoro-4-(3-isopropyl-4-methylpiperazin-1-yl)phenyl)pyrazin-2-yl)-3,4-dihydroisoquinolin-1(2H)-one] |
| 6 to 10 | 0.1 to 5 | CC(C)[C@H]1CN(c2ccc(-c3cnc(N)c(-c4ccc5c(c4)CCNC5=O)n3)cc2)CCN1C [Example I-40, (S)-6-(3-amino-6-(4-(3-isopropyl-4-methylpiperazin-1-yl)phenyl)pyrazin-2-yl)-3,4-dihydroisoquinolin-1(2H)-one] |
| 21 to 200 | 0.1 to 5 | CC(C)[C@H]1CN(c2ccc(-c3cnc(N)c(-c4ccc5c(c4)CCNC5=O)n3)c(F)c2)CCN1C [Example I-41, (S)-6-(3-amino-6-(2-fluoro-4-(3-isopropyl-4-methylpiperazin-1-yl)phenyl)pyrazin-2-yl)-3,4-dihydroisoquinolin-1(2H)-one] |
| 11 to 20 | 0.1 to 5 | C[C@@H]1CCCN1c1ccc(-c2cnc(N)c(-c3ccc4c(c3)CCNC4=O)n2)cc1 [Example I-42, (R)-6-(3-amino-6-(4-(2-methylpyrrolidin-1-yl)phenyl)pyrazin-2-yl)-3,4-dihydroisoquinolin-1(2H)-one] |
| 21 to 200 | 6 to 10 | C[C@@H]1CCCN1c1ccc(-c2cnc(N)c(-c3ccc4c(c3)CCNC4=O)n2)c(F)c1 [Example I-43, (R)-6-(3-amino-6-(2-fluoro-4-(2-methylpyrrolidin-1-yl)phenyl)pyrazin-2-yl)-3,4-dihydroisoquinolin-1(2H)-one] |
| 11 to 20 | 0.1 to 5 | CC(C)N1CCN(c2ccc(-c3cnc(N)c(-c4cc5c(cc4F)C(=O)NCC5)n3)cc2)CC1 [Example I-44, 6-(3-amino-6-(4-(4-isopropylpiperazin-1-yl)phenyl)pyrazin-2-yl)-7-fluoro-3,4-dihydroisoquinolin-1(2H)-one] |
| 11 to 20 | 0.1 to 5 | CN1C[C@H]2C[C@@]2(c2ccc(-c3cnc(N)c(-c4cc5c(cc4F)C(=O)NCC5)n3)cc2)C1 [Example I-45, 6-(3-amino-6-(4-((1R,5S)-3-methyl-3-azabicyclo[3.1.0]hexan-1-yl)phenyl)pyrazin-2-yl)-7-fluoro-3,4-dihydroisoquinolin-1(2H)-one] |
| 11 to 20 | 0.1 to 5 | CC(C)N1C[C@H]2C[C@@]2(c2ccc(-c3cnc(N)c(-c4cc5c(cc4F)C(=O)NCC5)n3)cc2)C1 [Example I-46, 6-(3-amino-6-(4-((1R,5S)-3-isopropyl-3-azabicyclo[3.1.0]hexan-1-yl)phenyl)pyrazin-2-yl)-7-fluoro-3,4-dihydroisoquinolin-1(2H)-one] |
| 11 to 20 | 0.1 to 5 | CN1C[C@@H]2C[C@]2(c2ccc(-c3cnc(N)c(-c4cc5c(cc4F)C(=O)NCC5)n3)cc2)C1 [Example I-47, 6-(3-amino-6-(4-((1S,5R)-3-methyl-3-azabicyclo[3.1.0]hexan-1-yl)phenyl)pyrazin-2-yl)-7-fluoro-3,4-dihydroisoquinolin-1(2H)-one] |
| 11 to 20 | 0.1 to 5 | CC(C)N1C[C@@H]2C[C@]2(c2ccc(-c3cnc(N)c(-c4cc5c(cc4F)C(=O)NCC5)n3)cc2)C1 [Example I-48, 6-(3-amino-6-(4-((1S,5R)-3-isopropyl-3-azabicyclo[3.1.0]hexan-1-yl)phenyl)pyrazin-2-yl)-7-fluoro-3,4-dihydroisoquinolin-1(2H)-one] |
| 6 to 10 | 0.1 to 5 | CN1CCN(c2ccc(-c3cnc(N)c(-c4ccc5c(c4)CCCNC5=O)n3)cc2)CC1 [Example I-50, 7-(3-amino-6-(4-(4-methylpiperazin-1-yl)phenyl)pyrazin-2-yl)-2,3,4,5-tetrahydro-1H-benzo[c]azepin-1-one] |
| 6 to 10 | 0.1 to 5 | Nc1ncc(-c2ccc([C@]34C[C@H]3CN(C3CC3)C4)cc2)nc1-c1cc2c(cc1F)C(=O)NCC2 [Example I-52, 6-(3-amino-6-(4-((1S,5R)-3-cyclopropyl-3-azabicyclo[3.1.0]hexan-1-yl)phenyl)pyrazin-2-yl)-7-fluoro-3,4-dihydroisoquinolin-1(2H)-one] |
| 21 to 200 | 0.1 to 5 | Cc1nc2cc(-c3nc(-c4ccc(C5CCOCC5)c(CN(C)C)c4)cnc3N)ccc2c(=O)[nH]1 [II-3, 7-(3-amino-6-(3-((dimethylamino)methyl)-4-(tetrahydro-2H-pyran-4-yl)phenyl)pyrazin-2-yl)-2-methylquinazolin-4(3H)-one] |
| 21 to 200 | 0.1 to 5 | Cc1[nH]c(=O)c2cc(F)c(-c3nc(-c4ccc(C5CCOCC5)c(CN(C)C)c4)cnc3N)cc2c1F [II-6, 6-(3-amino-6-(3-((dimethylamino)methyl)-4-(tetrahydro-2H-pyran-4-yl)phenyl)pyrazin-2-yl)-4,7-difluoro-3-methylisoquinolin-1(2H)-one] |

| SMILES | IC50 [1] [nM] | IC50 [2] [nM] |
| --- | --- | --- |
| Nc1ncc(-c2ccc([C@@]34C[C@@H]3CN(CCF)C4)cc2)nc1-c1ccc2c(c1)CCNC2=O [Example I-37, 6-(3-amino-6-(4-((1R,5S)-3-(2-fluoroethyl)-3-azabicyclo[3.1.0]hexan-1-yl)phenyl)pyrazin-2-yl)-3,4-dihydroisoquinolin-1(2H)-one] | 6 to 10 | 0.1 to 5 |
